Assay results reported in patent US8278289B2, “Boroxine composition for removal of skin changes” (priority 2006, dated 2012).

How the values were obtained:
[1] = system: mouse carcinoma cells SCC VII; test: Cytotoxic effect on mouse carcinoma cells SCC VII (crystal violet viability); assay type: cell-based; details: viable cells by absorbance at 590 nm after 24 hours with substance; XS100 = dosage 0.5 μg; variation max 10%
Procedure: (§1) An investigation of anti-tumor activity of the boroxine compound (XS) was conducted on cell lines of mouse fibro-sarcoma FsaR and mouse carcinoma SCC VII.
(§2) Cell lines (mouse fibro-sarcoma FsaR and mouse carcinoma SCC VII) were incubated at optimal conditions for 24 hours, followed by addition of tested substances in a dosage of 0.5 μg (XS100) and combinations with Li (lithium) and SNP (sodium-nitroprusside) Li (lithium) is blocker of GSK-3 (glycogen-synthetase-kinase), an enzyme involved in pathways that modulate cell's death. SNP (sodium-nitroprusside) is modulator of pro-apoptotic protein p53 (tumor suppressor protein).
(§3) Cells were additionally incubated for 24 hours in the presence of the substances. Later, cells were fixed by glutaraldehyde and stained in 0.1% crystal violet. Stain attached to the viable cells was extracted by 0.2% Triton-X 100 and extract absorbance was determined at 590 nm. Value of absorbance is proportional with viable cells number.
(§4) The following results have been obtained (the observed variation of the observed values are a maximum of 10%).

mouse fibro-sarcoma FsaR = test: Cytotoxic effect on mouse fibro-sarcoma FsaR (crystal violet viability); assay type: cell-based; details: viable cells by absorbance at 590 nm after 24 hours with substance; XS100 = dosage 0.5 μg; variation max 10%
Procedure: as §1, §2, §3, §4

K2[B3O3F4OH] [XS100]
% of control [1]: 42 % of control
% of control (mouse fibro-sarcoma FsaR): 21 % of control
